In patent US20260117071A1, “ICG LIPID DERIVATIVE, AND LIPID MICROPARTICLES EACH CONTAINING SAME” (Eisai R&D Management Co., Ltd., priority 2022, published 2026):

Experiment: Calculation of the molar extinction coefficient (absorption spectrum in ethanol)
Assay type: physicochemical
Details: absorbance at 790 nm, 5 μM in ethanol, optical path length 1 cm
Description: An ICG lipid solution, prepared by the dissolution of the particular ICG lipid derivative or ICG in ethanol to provide 5 μM in each case, was introduced into a cuvette with an optical path length of 1 cm, and the absorption spectrum at 230 to 1000 nm was measured using an Infinite M200 (Tecan). The absorption spectra in FIG. 5 were provided by subtracting the absorption spectra of ethanol from the absorbance at each wavelength.
The molar concentration used in the calculation of the molar extinction coefficient was itself calculated using a purity of 100% for the ICG lipid derivative and using the nonsalt form.

Compound | molar extinction coefficient ε [L/mol/cm]
CCCCCCCC/C=C\CCCCCCCC(=O)OCC(COP(=O)(O)OCCNC(=O)CCN1/C(=C/C=C/C=C/C=C/C2=[N+](CCCCS(=O)(=O)[O-])c3ccc4ccccc4c3C2(C)C)C(C)(C)c2c1ccc1ccccc21)OC(=O)CCCCCCC/C=C\CCCCCCCC (centres unmarked) [ICG-DOPE, 4-(2-((1E,3E,5E,7E)-7-(3-(3-((2-(((2,3-bis(oleoyloxy)propoxy)oxidophosphoryl)oxy)ethyl)amino)-3-oxopropyl)-1,1-dimethyl-1,3-dihyro-2H-benzo[e]indol-2-ylidene)hepta-1,3,5-trien-1-yl)-1,1-dimethyl-1H-benzo[e]indol-3-ium-3-yl)butane-1-sulfonate, reference compound] | 165860
CC1(C)C(/C=C/C=C/C=C/C=C2/N(CCCCS(=O)(=O)[O-])c3ccc4ccccc4c3C2(C)C)=[N+](CCCCS(=O)(=O)[O-])c2ccc3ccccc3c21.[Na+] [ICG, Indocyanine green, reference compound] | 208980
CCCCCCCC/C=C\CCCCCCCC(=O)OCC(COP(=O)([O-])OCCNC(=O)CC[N+]1=C(/C=C/C=C/C=C/C=C2/N(CCC(=O)NCCOP(=O)(O)OCC(COC(=O)CCCCCCC/C=C\CCCCCCCC)OC(=O)CCCCCCC/C=C\CCCCCCCC)c3ccc4ccccc4c3C2(C)C)C(C)(C)c2c1ccc1ccccc21)OC(=O)CCCCCCC/C=C\CCCCCCCC (centres unmarked) [ICG-diDOPE, 2-(3-(2-((1E,3E,5E,7E)-7-(3-(3-((2-(((2,3-bis(oleoyloxy)propoxy)(hydroxy)phosphoryl)oxy)ethyl)amino)-3-oxopropyl)-1,1-dimethyl-1,3-dihydro-2H-benzo[e]indol-2-ylidene)hepta-1,3,5-trien-1-yl)-1,1-dimethyl-1H-benzo[e]indol-3-ium-3-yl)propanamide)ethyl(2,3-bis(oleoyloxy)propyl) phosphate] | 161100
CCCCCCCCCCCCCCCCCC(=O)OCC(COP(=O)([O-])OCCNC(=O)CC[N+]1=C(/C=C/C=C/C=C/C=C2/N(CCC(=O)NCCOP(=O)(O)OCC(COC(=O)CCCCCCCCCCCCCCCCC)OC(=O)CCCCCCCCCCCCCCCCC)c3ccc4ccccc4c3C2(C)C)C(C)(C)c2c1ccc1ccccc21)OC(=O)CCCCCCCCCCCCCCCCC (centres unmarked) [ICG-diDSPE, 2-(3-(2-((1E,3E,5E,7E)-7-(3-(3-((2-(((2,3-bis(stearoyloxy)propoxy)(hydroxy)phosphoryl)oxy)ethyl)amino)-3-oxopropyl)-1,1-dimethyl-1,3-dihydro-2H-benzo[e]indol-2-ylidene)hepta-1,3,5-trien-1-yl)-1,1-dimethyl-1H-benzo[e]indol-3-ium-3-yl)propanamide)ethyl (2,3-bis(stearoyloxy)propyl) phosphate] | 199840
CCCCCCCCCCCCCCCCCCNC(=O)CCN1/C(=C/C=C/C=C/C=C/C2=[N+](CCC(=O)NCCCCCCCCCCCCCCCCCC)c3ccc4ccccc4c3C2(C)C)C(C)(C)c2c1ccc1ccccc21 [ICG-diSA, 2-((1E,3E,5E,7E)-7-(1,1-dimethyl-3-(3-(octadecylamino)-3-oxopropyl)-1,3-dihydro-2H-benzo[e]indol-2-ylidene)hepta-1,3,5-trien-1-yl)-1,1-dimethyl-3-(3-(octadecylamino)-3-oxopropyl)-1H-benzo[e]indol-3-ium] | 177760
